# Experimental data as given in patent US20100197797A1 (priority 2009, published 2010).
# System: fibromyalgia patients
# Assay: Placebo-controlled trials in fibromyalgia patients (safety)
# Format: in vivo, human
# Text: The stated frequencies of adverse reactions represent the proportion of individuals who experienced, at least once, a treatment-emergent adverse reaction of the type listed. A reaction was considered treatment emergent if it occurred for the first time or worsened while receiving therapy following baseline evaluation.
smiles,measurement,setting,value
"CCN(CC)C(=O)C1(c2ccccc2)CC1CN.Cl (racemic) [milnacipran hydrochloride, (±)-[1R(S),2S(R)]-2-(aminomethyl)-N,N-diethyl-1-phenylcyclopropanecarboxamide hydrochloride]",patients who discontinued prematurely due to adverse reactions,100 mg/day,23%
same,patients with increases in AST,100 mg/day,3%
same,patients with increases in pulse≧20 bpm,100 mg/day,8%
same,sustained increases in DBP (≧10 mmHg on 3 consecutive post-baseline visits),100 mg/day,13%
same,sustained increases in SBP (≧15 mmHg on three consecutive post-baseline visits),100 mg/day,9%
same,Adverse reaction incidence: Abdominal pain,100 mg/day (n = 623),3%
same,Adverse reaction incidence: Anxiety,100 mg/day (n = 623),5%
same,Adverse reaction incidence: Blood pressure increased,100 mg/day (n = 623),3%
same,Adverse reaction incidence: Chest discomfort,100 mg/day (n = 623),2%
same,Adverse reaction incidence: Chest pain,100 mg/day (n = 623),3%
same,Adverse reaction incidence: Chills,100 mg/day (n = 623),1%
same,Adverse reaction incidence: Constipation,100 mg/day (n = 623),16%
same,Adverse reaction incidence: Decreased appetite,100 mg/day (n = 623),1%
same,Adverse reaction incidence: Dizziness,100 mg/day (n = 623),11%
same,Adverse reaction incidence: Dry mouth,100 mg/day (n = 623),5%
same,Adverse reaction incidence: Dyspnea,100 mg/day (n = 623),2%
same,Adverse reaction incidence: Flushing,100 mg/day (n = 623),2%
same,Adverse reaction incidence: Headache,100 mg/day (n = 623),19%
same,Adverse reaction incidence: Heart rate increased,100 mg/day (n = 623),5%
same,Adverse reaction incidence: Hot flush,100 mg/day (n = 623),11%
same,Adverse reaction incidence: Hyperhidrosis,100 mg/day (n = 623),8%
same,Adverse reaction incidence: Hypertension,100 mg/day (n = 623),7%
same,Adverse reaction incidence: Hypoesthesia,100 mg/day (n = 623),1%
same,Adverse reaction incidence: Insomnia,100 mg/day (n = 623),12%
same,Adverse reaction incidence: Migraine,100 mg/day (n = 623),6%
same,Adverse reaction incidence: Nausea,100 mg/day (n = 623),35%
same,Adverse reaction incidence: Palpitations,100 mg/day (n = 623),8%
same,Adverse reaction incidence: Paresthesia,100 mg/day (n = 623),2%
same,Adverse reaction incidence: Pruritus,100 mg/day (n = 623),3%
same,Adverse reaction incidence: Rash,100 mg/day (n = 623),3%
same,Adverse reaction incidence: Tachycardia,100 mg/day (n = 623),3%
same,Adverse reaction incidence: Tension headache,100 mg/day (n = 623),2%
same,Adverse reaction incidence: Tremor,100 mg/day (n = 623),2%
same,Adverse reaction incidence: Upper respiratory tract infection,100 mg/day (n = 623),7%
same,Adverse reaction incidence: Vision blurred,100 mg/day (n = 623),1%
same,Adverse reaction incidence: Vomiting,100 mg/day (n = 623),6%
same,patients with increase in ALT greater than 5 times (not exceeding 10 times) the upper limit of normal,"100 mg/day, one patient",0.2%
same,patients who discontinued prematurely due to adverse reactions,200 mg/day,26%
same,patients with increases in AST,200 mg/day,5%
same,patients with increases in pulse≧20 bpm,200 mg/day,8%
same,sustained increases in DBP (≧10 mmHg on 3 consecutive post-baseline visits),200 mg/day,10%
same,sustained increases in SBP (≧15 mmHg on three consecutive post-baseline visits),200 mg/day,6%
same,Adverse reaction incidence: Abdominal pain,200 mg/day (n = 934),3%
same,Adverse reaction incidence: Anxiety,200 mg/day (n = 934),3%
same,Adverse reaction incidence: Blood pressure increased,200 mg/day (n = 934),3%
same,Adverse reaction incidence: Chest discomfort,200 mg/day (n = 934),1%
same,Adverse reaction incidence: Chest pain,200 mg/day (n = 934),2%
same,Adverse reaction incidence: Chills,200 mg/day (n = 934),2%
same,Adverse reaction incidence: Constipation,200 mg/day (n = 934),15%
same,Adverse reaction incidence: Decreased appetite,200 mg/day (n = 934),2%
same,Adverse reaction incidence: Dizziness,200 mg/day (n = 934),10%
same,Adverse reaction incidence: Dry mouth,200 mg/day (n = 934),5%
same,Adverse reaction incidence: Dyspnea,200 mg/day (n = 934),2%
same,Adverse reaction incidence: Flushing,200 mg/day (n = 934),3%
same,Adverse reaction incidence: Headache,200 mg/day (n = 934),17%
same,Adverse reaction incidence: Heart rate increased,200 mg/day (n = 934),6%
same,Adverse reaction incidence: Hot flush,200 mg/day (n = 934),12%
same,Adverse reaction incidence: Hyperhidrosis,200 mg/day (n = 934),9%
same,Adverse reaction incidence: Hypertension,200 mg/day (n = 934),4%
same,Adverse reaction incidence: Hypoesthesia,200 mg/day (n = 934),2%
same,Adverse reaction incidence: Insomnia,200 mg/day (n = 934),12%
same,Adverse reaction incidence: Migraine,200 mg/day (n = 934),4%
same,Adverse reaction incidence: Nausea,200 mg/day (n = 934),39%
same,Adverse reaction incidence: Palpitations,200 mg/day (n = 934),7%
same,Adverse reaction incidence: Paresthesia,200 mg/day (n = 934),3%
same,Adverse reaction incidence: Pruritus,200 mg/day (n = 934),2%
same,Adverse reaction incidence: Rash,200 mg/day (n = 934),4%
same,Adverse reaction incidence: Tachycardia,200 mg/day (n = 934),2%
same,Adverse reaction incidence: Tension headache,200 mg/day (n = 934),1%
same,Adverse reaction incidence: Tremor,200 mg/day (n = 934),2%
same,Adverse reaction incidence: Upper respiratory tract infection,200 mg/day (n = 934),6%
same,Adverse reaction incidence: Vision blurred,200 mg/day (n = 934),2%
